Legend:
[1] = target: T1, ligand-dependent interaction between PPARγ and CBP (Homo sapiens, UniProt P37231); test: Yeast two-hybrid detection of ligand-dependent interaction between PPARγ and CBP (β-galactosidase reporter); format: cell-based; settings: for β-galactosidase activity (lacZ gene expression): yeast SFY526 containing both plasmids pGBT9-PPARγ2 and pGAD424-CBP, substance added at 10^−6M (FIG. 2A/3A), cultivation 4 to 5 hours; for concentration dependence of the increase in β-galactosidase activity: yeast containing both plasmids, varying concentrations of substance (FIG. 2B/3B)
T1 construct: expressed in transfected cells; host or cells: yeast cell strain SFY526 (Clontech), transformed with pGBT9-PPARγ2 and pGAD424-CBP
Excerpt: The 1574 base pair fragment containing PPARγ2 gene obtained in (1) above was cleaved at the XhoI recognition site designed at the terminus and the BamHI recognition site in the base sequence. The fragments obtained were inserted into the BamHI-SalI site of yeast expression vector pGBT9 (available from Clontech Co., vector for yeast two hybrid system) containing the gene of the DNA binding domain of transcription factor GAL4 (No. 1 to 147 amino acid residues of GAL4). As a result, plasmid pGBT9-PPARγ2 (FIG. 1A) for expressing a fused protein comprising the portion downstream of the No. 181 amino acid residue of human PPARγ2 (ligand binding domain) and the DNA binding domain of GAL4 was obtained. In FIG. 1A, GAL4 bd stands for a GAL4 DNA binding domain sequence, ^PADH1 stands for alcohol dehydrogenase gene promoter, ^TADH1 stands for an alcohol dehydrogenase gene terminator, Amp^r stands for an ampicillin resistant gene, ColE1 ori stands for a collicin E1 replication start point, and 2 μ ori stands for a 2 μ replication start point.
The 1411 base pair fragment containing CBP gene obtained in (1) above (N-terminal domain) was cleaved at the BamHI recognition site and BglII recognition site designed at the termini. The fragments obtained were inserted into the BamHI-BglII site of yeast expression vector pGAD424 (available from Clontech Co., vector for yeast two hybrid system) containing the gene of the transcriptional activation domain of GAL4 (No. 768 to 881 amino acid residues of GAL4). As a result, plasmid pGAD424-CBP (FIG. 1B) for expressing a fused protein comprising the portion of the No. 1 to 464 amino acid residues of mouse CBP (N-terminal domain) and the transcriptional activation domain of GAL4 was obtained. In FIG. 1B, GAL4 ad stands for GAL4 transcriptional activation domain sequence and others have the same meanings as in FIG. 1A.
Using yeast cell strain SFY526 (available from Clontech Co.), the fused protein expression plasmids pGBT9-PPARγ2 and pGAD424-CBP obtained in (2) and (3) above were introduced therein. The cell strain SFY526 (genotype was MATa, ura3-52, his3-200, ade2-101, lys2-801, trp1-901, leu2-3, 112, canr, gal4-542, gal80-538, URA3::GAL1-lacZ) had incorporated in the chromosome a fused gene of GAL1 and lacZ and is a cell strain having deletion mutation relative to GAL4 gene (Bartel et al., Bio Techniques, vol. 14, pp. 920–924, 1993). The transformation was performed by the lithium acetate method and incubated in a synthetic medium depleted of tryptophan and leucine which are selection markers for the respective plasmids to perform screening to obtain a transformant in which only one of the plasmids was introduced and a transformant in which the both plasmids were introduced.
The yeast transformant containing both of the plasmids pGBT9-PPARγ and pGAD424-CBP or the yeast transformant containing only one of the plasmids was cultivated in YPD medium (liquid medium). Upon cultivation, 15-deoxy-Δ^12,14-prostaglandin J2, which is a ligand of PPARγ2 in a living body, diluted with YPD medium was added (or not added). 15-deoxy-Δ^12,14-prostaglandin J2 (hereinafter abbreviated to as “15d-PGJ2”) used was commercially available (available from CAYMAN CHEMICALS, CO., U.S.A.). The cultivation was performed for 4 to 5 hours. After the cultivation, the yeast cells were recovered by centrifugation and β-galactosidase activity was measured. […]

KK-Ay mouse = settings: Japanese Provisional Patent Publications No. 56675/1989 and No. 167225/1990; cited from earlier work

T1 sequence (P37231 182-505): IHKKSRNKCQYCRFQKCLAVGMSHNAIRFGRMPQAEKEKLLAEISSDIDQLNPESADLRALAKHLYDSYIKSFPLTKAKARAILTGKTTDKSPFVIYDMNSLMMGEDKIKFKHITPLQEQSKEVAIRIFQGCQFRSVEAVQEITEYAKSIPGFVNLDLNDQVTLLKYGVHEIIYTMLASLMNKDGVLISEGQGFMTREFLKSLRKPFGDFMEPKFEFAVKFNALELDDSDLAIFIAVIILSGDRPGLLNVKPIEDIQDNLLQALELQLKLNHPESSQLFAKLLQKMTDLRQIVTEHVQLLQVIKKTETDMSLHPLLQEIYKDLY
T1 sequence (P45481 1-464 partner): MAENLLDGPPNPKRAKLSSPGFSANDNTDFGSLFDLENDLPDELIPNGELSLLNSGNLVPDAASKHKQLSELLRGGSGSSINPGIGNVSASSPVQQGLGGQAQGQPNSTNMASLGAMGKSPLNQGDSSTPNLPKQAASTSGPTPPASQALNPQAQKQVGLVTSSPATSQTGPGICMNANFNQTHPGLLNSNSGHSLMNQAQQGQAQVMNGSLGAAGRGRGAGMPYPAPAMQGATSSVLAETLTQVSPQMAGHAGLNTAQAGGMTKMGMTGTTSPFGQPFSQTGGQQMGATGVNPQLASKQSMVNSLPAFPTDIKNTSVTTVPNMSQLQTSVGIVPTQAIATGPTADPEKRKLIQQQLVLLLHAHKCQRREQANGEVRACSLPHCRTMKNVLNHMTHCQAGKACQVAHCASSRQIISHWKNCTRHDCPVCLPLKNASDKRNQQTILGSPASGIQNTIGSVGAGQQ

Row | SMILES | β-galactosidase activity (lacZ gene expression) [1] | concentration dependence of the increase in β-galactosidase activity [1] | hypoglycemic effect (KK-Ay mouse) | identification as agonist for PPARγ ([1]; conclusion from ligand-dependent PPARγ-CBP interaction in yeast two-hybrid system)
1 | CCCCC/C=C/C=C1/C(=O)C=C[C@@H]1C/C=C\CCCC(=O)O [15d-PGJ2, 15-deoxy-Δ^12,14-prostaglandin J2] | an increase in β-galactosidase activity | dependent on the concentration of 15d-PGJ2 | – | –
2 | O=C1NC(=O)C(Cc2ccc3oc(Cc4ccc5ccccc5c4)nc3c2)S1 (stereo not drawn) [T-174, 5-[[2-(2-naphthalenylmethyl)-5-benzoxazolyl]methyl]-2,4-thiazolidinedione] | an increase in β-galactosidase activity was observed only in the yeast containing both of the plasmids | dependent on the concentration of T-174 | hypoglycemic effect | identified as an agonist acting as a ligand to PPARγ
